# Tested on: ALOMY
# Assay: Example IV postemergence foliar-applied, greenhouse, cereal crops weeds
# Format: in vivo, Alopecurus myosuroides Huds.
# Protocol: Seeds of the desired test plant species were planted in Sun Gro MetroMix® 306 planting mixture, which typically has a pH of 6.0 to 6.8 and an organic matter content of about 30 percent, in plastic pots with a surface area of 103.2 square centimeters (cm^2). When required to ensure good germination and healthy plants, a fungicide treatment and/or other chemical or physical treatment was applied. The plants were grown for 7-36 days in a greenhouse with an approximate 14 hour photoperiod which was maintained at about 18° C. during the day and about 17° C. during the night. Nutrients and water were added on a regular basis and supplemental lighting was provided with overhead metal halide 1000-Watt lamps as necessary. The plants were employed for testing when they reached the second or third true leaf stage.
# Treatments consisted of the benzyl ester of 4-amino-3-chloro-5-fluoro-6-(4-chloro-2-fluoro-3-methoxy-phenyl)pyridine-2-carboxylic acid (Compound A), formulated as an SC, a second cereal herbicide alone and then both in combination.
# Other herbicidal components were applied on an active ingredient basis and included acetyl-CoA carboxylase (ACCase)-inhibiting herbicides clodinafop-propargyl, fenoxaprop-P-ethyl, pinoxaden and tralkoxydim.
# Measured aliquots of benzyl ester of 4-amino-3-chloro-5-fluoro-6-(4-chloro-2-fluoro-3-methoxy-phenyl)pyridine-2-carboxylic acid (Compound A) were placed in 25 milliliter (mL) glass vials and diluted in a volume of 1.25% (v/v) Agri-Dex® crop oil concentrate to obtain stock solutions. Compound requirements are based upon a 12 mL application volume at a rate of 187 liters per hectare (L/ha). Spray solutions of the second cereal herbicide and experimental compound mixtures were prepared by adding the stock solutions to the appropriate amount of dilution solution to form 12 mL spray solution with active ingredients in two- and three-way combinations. Formulated compounds were applied to the plant material with an overhead Mandel track sprayer equipped with an 8002E nozzle calibrated to deliver 187 L/ha over an application area of 0.503 square meters (m^2) at a spray height of 18 inches (46 cm) above average plant canopy. Control plants were sprayed in the same manner with the solvent blank.
# The treated plants and control plants were placed in a greenhouse as described above and watered by sub-irrigation to prevent wash-off of the test compounds. After 20-22 days, the condition of the test plants as compared with that of the control plants was determined visually and scored on a scale of 0 to 100 percent where 0 corresponds to no injury and 100 corresponds to complete kill. […]
compound,measurement,setting,value
"COc1c(Cl)ccc(-c2nc(C(=O)OCc3ccccc3)c(Cl)c(N)c2F)c1F [Compound A Benzyl Ester, benzyl ester of 4-amino-3-chloro-5-fluoro-6-(4-chloro-2-fluoro-3-methoxy-phenyl)pyridine-2-carboxylic acid]",Visual Weed Control (%) - 21 DAA ALOMY Obs,Compound A Benzyl Ester 5 gai/ha,0%
same,Visual Weed Control (%) - 21 DAA ALOMY Obs,Compound A Benzyl Ester 10 gai/ha,0%

# — patent US9232796B2, “Herbicidal compositions comprising 4-amino-3-chloro-5-fluoro-6-(4-chloro-2-fluoro-3-methoxyphenyl) pyridine-2-carboxylic acid or a derivative thereof and acetyl-CoA carboxylase (ACCase) inhibitors” (DOW AGROSCIENCES LLC, priority 2012, dated 2016)
